Where two headings read alike, the source gives them in different places.
Tests used:
[1] = tested on: PGE2 production from rat synovia cells (Rat SVC); test: Inhibitory Activity on PGE2 Production from Rat Synovia Cells; type: cell-based, rat (LEW/Crj); details: human IL-1 β 30 U/ml, 15 hours, RIA
Method: Inhibitory Activity on PGE2 Production from Rat Synovia Cells
LEW/Crj rats (male, 300-350 g weight) were subjected to synovectomy. The isolated synovia cells were subcultivated under a certain condition up to a well amount of cells for the experiment. The cells were dispensed to each well of a 96-well microtiter plate at a concentration of 4×10^3 /160 μl/well and then cultivated for 72 hours in a CO2 incubator. Serial dilutions (20 μl each) of a test compound and human IL-1 β(final concentration: 30 U/ml) were added to the wells and incubated for 15 hours in a Co2 incubator. After the incubation, the supernatant was collected from each well and stored at -80° C. until PGE2 assay. […]

[2] = tested on: LTB4 production from rat peritoneal cells (Rat PEC); test: Inhibitory Activity on LTB4 Production from Rat Peritoneal Cells; type: cell-based, rat (Jcl-SD); details: 0.25 h, Ca-ionophore A23187 1 μM, 15 min, RIA
Method: Inhibitory Activity on LTB4 Production from Rat Peritoneal Cells
To each male Jcl-SD rat (300-350 g weight) was intraperitoneally administered 10 ml of Hanks' solution containing 0.1% bovine serum albumin (hereinafter referred to as BSA) and 25 U/ml of heparin. Then the ascites were collected and centrifuged (1500 rpm×5 min., at 4° C.). The resulting cell fraction (precipitation) was suspended and adjusted at […] with Hanks' solution containing 0.1% BSA. The thus obtained suspension (800 μl, 8×10^5 cells) was dispensed into polypropylene tubes and incubated at 37° C. 10 min, and successively for 10 min. after addition of serial dilutions (100 μl each) of a test sample. Next, 100 μl of Ca-ionophore A23187 (final concentration: 1 μM) was added to the resulting suspension and allowed to stand for 15 min, then the mixture was ice-cooled to terminate the reaction. The reaction mixtures were centrifuged (3000 rpm×5 min., at 4° C.) to give supernatants, which were collected and stored at -80° C. until LTB4 assay. After thawed, the LTB4 assay was performed by RIA using ^3 H--LTB4.

[3] = tested on: IL-1 production in THP-1 cells; test: Inhibitory Activity on IL-1 Production caused by The Stimulation of LPS in THP-1 Cells; type: cell-based; details: Homo sapiens, read-out: IC50 THP-1 IL-1
Method: Serial dilutions (100 μl each) of a test compound and LPS (final concentration: 10 μg/ml) were further added to each well and the plate was kept at 37° C. for 24 hours. Then, the supernatant was collected from each well and centrifuged (3000 rpm×10 min.). […]

[4] = tested on: Carrageenin-Induced Paw Edema of Rat; test: Inhibitory Activity on Carrageenin-Induced Paw-Edema of Rat; type: in vivo, rat (LEW/Crj); details: oral 1 hour before carrageenin, inhibitory rate 3 or 4 hours after carrageenin, read-out: ED30 Inhibitory Activities to Carrageenin-Induced Paw Edema of Rat
Method: Inhibitory Activity on Carrageenin-Induced Paw-Edema of Rat
Namely, male LEW/Crj rats (6-week-old, 140-170 g weight) fasted for 24 hours were used (7 to 8 rats per group).
A solution (0.1 ml) containing 1% λ-carrageenin (PICININ-A, Zushikagaku) was injected into the subplantar tissue of the right hind paw of each rat orally administered a test compound before 1 hour, to induce edema. The paw volume was calculated plethysmographically before and after the injection at an interval of 1 hour until 5 hours later. The inhibitory rate of the drug-administered group was calculated, with the vehicle group as the reference, to determine the efficacy of the test compounds by Dunnett-t assay. The anti-edema activity was indicated as ED30 calculated, by regression analysis method, based on the inhibitory rate shown 3 or 4 hours later after the administration of carrageenin.

[5] = tested on: Tunica Mucosa Ventriculi of rat (stomach); test: Inducing Activities on Injury at Tunica Mucosa of Rat (stomach); type: in vivo, rat (LEW/Crj); details: oral, 6 hours
Method: Inducing Activities on Injury at Tunica Mucosa of Rat
Sixs LEW/Crj male rats (six week old, 140-160 g weight) were used per one group. A drug was orally administered to each rat fasted for 24 hours, then six hours later each rat were bled to death under anesthesia of ether. From each rat was taken out the stomach, in which about 6 ml of physiological saline was filled, then the stomach was steeped in 1% formalin solution for 15 min. The stomach was incised along with curvatura ventriculi major and observed with an actual-microscope to see the injured condition thereof, then the number of rats injuried at stomach and the length of hemorrhage macula were determined. The degree of the injury was shown as Lesion index (mm) which was the cumulative value of the length of hemorrhage macula in each administered group.

[6] = THP-1 cells, LPS 10 μg/ml, 24 hours, RIA of IL-1 β

Row | SMILES | IC50 [1] [nM] | IC50 [2] [nM] | IC50 [3, 6] [nM] | ED30 [4] [mg/kg] | Injury at Tunica Mucosa Ventriculi, Degree of Injury (Lesion index) ([5]; 10 mg/kg) [mm] | Injury at Tunica Mucosa Ventriculi, Number Occurrence/Sample ([5]; 10 mg/kg) | Injury at Tunica Mucosa Ventriculi, Degree of Injury (Lesion index) ([5]; 100 mg/kg) [mm] | Injury at Tunica Mucosa Ventriculi, Number Occurrence/Sample ([5]; 100 mg/kg) | Injury at Tunica Mucosa Ventriculi, Degree of Injury (Lesion index) ([5]; 200 mg/kg) [mm] | Injury at Tunica Mucosa Ventriculi, Number Occurrence/Sample ([5]; 200 mg/kg) | Injury at Tunica Mucosa Ventriculi, Degree of Injury (Lesion index) ([5]; 30 mg/kg) [mm] | Injury at Tunica Mucosa Ventriculi, Number Occurrence/Sample ([5]; 30 mg/kg) | Injury at Tunica Mucosa Ventriculi, Degree of Injury (Lesion index) ([5]; 400 mg/kg) [mm] | Injury at Tunica Mucosa Ventriculi, Number Occurrence/Sample ([5]; 400 mg/kg) | IC50 ([3]; THP-1, 24 h) [nM] | Injury at Tunica Mucosa Ventriculi, Degree of Injury (Lesion index) ([5]; 3 mg/kg) [mm] | Injury at Tunica Mucosa Ventriculi, Number Occurrence/Sample ([5]; 3 mg/kg)
1 | CC(C)(C)c1cc(C=C2CCN(C(N)=O)C2=O)cc(C(C)(C)C)c1O [Ia-1, N-carbamoyl-3-(3,5-di-tert-butyl-4-hydroxybenzylidene)pyrrolidin-2-one] | 400 | 4000 | 20000 | 18 | 0 ± 0 | 0/6 | 0 ± 0 | 0/6 | 0 ± 0 | 0/6 |  |  |  |  |  |  | 
2 | CN(O)C(=O)N1CCC(=Cc2cc(C(C)(C)C)c(O)c(C(C)(C)C)c2)C1=O [Ia-6, N-(N-hydroxy-N-methylcarbamoyl)-3-(3,5-di-tert-butyl-4-hydroxybenzylidene)pyrrolidin-2-one] | 9 | 3000 | 34000 | 9 | 0 ± 0 | 0/6 | 1.0 ± 0.5 | 3/6 |  |  | 0.6 ± 0.5 | 3/6 |  |  |  |  | 
3 | CC(C)(C)c1cc(C=C2CCN(C(=O)NO)C2=O)cc(C(C)(C)C)c1O [Ia-4, N-(N-hydroxycarbamoyl)-3-(3,5-di-tert-butyl-4-hydroxybenzylidene)pyrrolidin-2-one] | 200 | 3000 | 25000 | 16 |  |  | 0 ± 0 | 0/8 | 0 ± 0 | 0/8 |  |  | 0.2 ± 0.1 | 3/8 |  |  | 
4 | CON1CCC(=Cc2cc(C(C)(C)C)c(O)c(C(C)(C)C)c2)C1=O [Reference Compound, N-methoxy-3-(3,5-di-tert-butyl-4-hydroxybenzylidene)-2-pyrrolidone, reference compound] | 5 | 6000 |  | 3 | 7.2 ± 1.2 | 6/6 |  |  |  |  | 11.2 ± 2.2 | 6/6 |  |  | > 100000 | 4.5 ± 1.3 | 6/6
